Source: US12589156B2, “Benzimidazole and benzimidazolone based protac compounds for the targeted degradation of leucine rich repeat kinase 2 (LRRK2)” (Arvinas Operations, Inc., priority 2023, dated 2026)

Target: T1, WT LRRK2 (Homo sapiens, UniProt Q5S007)
T1 construct: endogenous in cells; host or cells: HEK293 (endogenous LRRK2 gene knock-in tagged with HiBit; stably expressing CMV-driven firefly luciferase)
Assay: LRRK2 HiBit degradation assay (Nano-Glo Dual Luciferase) in HEK293 cells with HiBit-tagged endogenous LRRK2
Type: cell-based
Settings: for Dmax / WT LRRK2 **Dmax (%): maximal degradation
Procedure, shortened: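 HEK293 cells carrying endogenous C-terminally HiBit-tagged LRRK2 and stably expressing CMV-driven firefly luciferase were treated for 24 h at 37° C with an 11-point 1:3 series from a 1 μM final top concentration. Nano-Glo Dual Luciferase read LRRK2-HiBit against firefly signal. Alamar Blue gave viability, and signals were normalized to DMSO median before curve fitting.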

[1] = HEK293, Table 2, HiBit-tagged LRRK2 in HEK293 cells, 24 hours treatment
[2] = Table 2, HiBit-tagged LRRK2 in HEK293 cells, 24 hours treatment, starting concentration 1 μM
[3] = HEK293, Table 3, comparison with direct comparators
[4] = Table 3, comparison with direct comparators, HiBit-tagged LRRK2 in HEK293 cells, 24 hours treatment
[5] = Table 2, HiBit-tagged LRRK2 in HEK293 cells, 24 hours treatment

T1 sequence (Q5S007 whole entry): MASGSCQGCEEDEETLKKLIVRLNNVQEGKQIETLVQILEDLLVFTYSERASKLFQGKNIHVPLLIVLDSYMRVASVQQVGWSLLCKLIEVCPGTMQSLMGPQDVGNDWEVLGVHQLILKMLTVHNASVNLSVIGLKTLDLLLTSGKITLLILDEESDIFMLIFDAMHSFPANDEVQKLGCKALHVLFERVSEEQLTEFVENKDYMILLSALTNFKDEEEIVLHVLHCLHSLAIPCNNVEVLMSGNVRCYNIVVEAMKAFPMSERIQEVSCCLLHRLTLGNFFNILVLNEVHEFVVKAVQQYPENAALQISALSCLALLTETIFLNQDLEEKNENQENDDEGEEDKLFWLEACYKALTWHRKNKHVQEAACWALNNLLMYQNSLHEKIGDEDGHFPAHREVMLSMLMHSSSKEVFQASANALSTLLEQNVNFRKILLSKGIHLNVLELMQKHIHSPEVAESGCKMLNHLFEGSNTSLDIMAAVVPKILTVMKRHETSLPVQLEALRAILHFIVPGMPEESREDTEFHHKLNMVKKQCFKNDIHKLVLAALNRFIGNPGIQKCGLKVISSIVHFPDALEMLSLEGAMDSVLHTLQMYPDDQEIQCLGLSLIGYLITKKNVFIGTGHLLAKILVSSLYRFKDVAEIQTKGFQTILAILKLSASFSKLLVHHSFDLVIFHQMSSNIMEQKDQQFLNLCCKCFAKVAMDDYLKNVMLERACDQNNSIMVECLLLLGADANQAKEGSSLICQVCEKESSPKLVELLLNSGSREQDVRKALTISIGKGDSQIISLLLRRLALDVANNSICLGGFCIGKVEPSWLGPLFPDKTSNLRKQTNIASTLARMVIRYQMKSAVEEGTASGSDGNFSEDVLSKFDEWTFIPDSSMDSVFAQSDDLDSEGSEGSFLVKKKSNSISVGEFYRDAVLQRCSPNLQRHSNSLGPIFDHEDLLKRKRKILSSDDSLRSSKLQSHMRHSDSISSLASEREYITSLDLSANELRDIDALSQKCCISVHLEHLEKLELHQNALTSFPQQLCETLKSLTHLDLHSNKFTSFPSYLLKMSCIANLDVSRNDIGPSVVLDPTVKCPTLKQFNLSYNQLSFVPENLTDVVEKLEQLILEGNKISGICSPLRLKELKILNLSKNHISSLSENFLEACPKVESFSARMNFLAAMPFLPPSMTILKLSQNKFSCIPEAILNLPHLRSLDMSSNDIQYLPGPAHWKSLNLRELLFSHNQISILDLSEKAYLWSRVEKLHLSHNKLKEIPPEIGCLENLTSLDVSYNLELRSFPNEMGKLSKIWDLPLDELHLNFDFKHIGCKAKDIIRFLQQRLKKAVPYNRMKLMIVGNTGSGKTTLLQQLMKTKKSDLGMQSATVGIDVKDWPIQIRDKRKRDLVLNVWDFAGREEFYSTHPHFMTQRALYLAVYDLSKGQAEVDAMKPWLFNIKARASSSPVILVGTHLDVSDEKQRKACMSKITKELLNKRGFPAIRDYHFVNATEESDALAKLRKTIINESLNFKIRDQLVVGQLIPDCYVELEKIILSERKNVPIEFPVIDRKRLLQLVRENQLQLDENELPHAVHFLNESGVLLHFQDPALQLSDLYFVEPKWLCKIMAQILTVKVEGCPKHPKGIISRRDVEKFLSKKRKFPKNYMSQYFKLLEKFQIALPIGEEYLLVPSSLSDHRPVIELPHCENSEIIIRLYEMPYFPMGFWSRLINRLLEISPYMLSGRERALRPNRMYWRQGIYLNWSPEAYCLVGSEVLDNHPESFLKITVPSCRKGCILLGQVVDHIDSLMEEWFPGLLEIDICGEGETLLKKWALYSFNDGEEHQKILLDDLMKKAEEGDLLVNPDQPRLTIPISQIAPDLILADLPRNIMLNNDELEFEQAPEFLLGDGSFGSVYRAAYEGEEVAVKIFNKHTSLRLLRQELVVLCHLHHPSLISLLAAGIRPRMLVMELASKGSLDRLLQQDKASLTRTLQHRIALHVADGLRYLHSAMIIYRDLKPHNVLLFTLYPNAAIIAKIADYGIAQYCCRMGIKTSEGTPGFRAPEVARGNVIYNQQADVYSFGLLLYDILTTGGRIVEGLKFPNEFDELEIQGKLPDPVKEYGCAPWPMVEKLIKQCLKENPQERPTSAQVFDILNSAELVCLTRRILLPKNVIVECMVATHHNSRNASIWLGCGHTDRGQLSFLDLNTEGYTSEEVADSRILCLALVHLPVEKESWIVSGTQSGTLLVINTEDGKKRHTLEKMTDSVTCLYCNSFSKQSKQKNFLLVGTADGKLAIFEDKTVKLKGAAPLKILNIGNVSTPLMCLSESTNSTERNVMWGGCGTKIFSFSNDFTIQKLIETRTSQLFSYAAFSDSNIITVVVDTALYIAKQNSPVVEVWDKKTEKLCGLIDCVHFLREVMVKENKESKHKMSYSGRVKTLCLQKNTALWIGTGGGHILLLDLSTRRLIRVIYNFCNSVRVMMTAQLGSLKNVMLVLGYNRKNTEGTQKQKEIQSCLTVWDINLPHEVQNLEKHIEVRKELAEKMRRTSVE

SMILES	Dmax [1]	DC50 [2]	Dmax [3]	DC50 [4]	WT LRRK2 **Dmax (%) [5]	Dmax [5]
Cn1c(=O)n(C2CCC(=O)NC2=O)c2ccc(N3CCC(O[C@H]4CC[C@H](CN5CCN(c6cc(-c7n[nH]c8ccc(C9(C#N)CC9)cc78)ncn6)CC5)CC4)CC3)cc21 (single isomer, unassigned) [Compound 63, rel-1-{3-[6-(4-{[(1r,4r)-4-({1-[1-(2,6-dioxopiperidin-3-yl)-3-methyl-2-oxo-2,3-dihydro-1H-1,3-benzodiazol-5-yl]piperidin-4-yl}oxy)cyclohexyl]methyl}piperazin-1-yl)pyrimidin-4-yl]-1H-indazol-5-yl}cyclopropane-1-carbonitrile]	56%	0.13 nM				
Cn1c(=O)n(C2CCC(=O)NC2=O)c2cccc(N3CCC(O[C@H]4CC[C@H](CN5CCN(c6cc(-c7n[nH]c8ccc(OC9(C)CC9)cc78)ncn6)CC5)CC4)CC3)c21 (stereo partly shown) [Compound 9, 3-[3-methyl-2-oxo-4-(4-{[(1r,4r)-4-[(4-{6-[5-(1-methylcyclopropoxy)-1H-indazol-3-yl]pyrimidin-4-yl}piperazin-1-yl)methyl]cyclohexyl]oxy}piperidin-1-yl)-2,3-dihydro-1H-1,3-benzodiazol-1-yl]piperidine-2,6-dione]	66%	1.2 nM	66%	1.2 nM		
CC(C)Oc1ccc2[nH]nc(-c3cc(N4CCN(CC5CCC(OC6CCN(c7ccc8c(c7)n(C)c(=O)n8C7CCC(=O)NC7=O)CC6)CC5)CC4)ncn3)c2c1 (stereo not drawn) [Compound 55, rel-3-[3-methyl-2-oxo-5-(4-{[(1r,4r)-4-[(4-{6-[5-(propan-2-yloxy)-1H-indazol-3-yl]pyrimidin-4-yl}piperazin-1-yl)methyl]cyclohexyl]oxy}piperidin-1-yl)-2,3-dihydro-1H-1,3-benzodiazol-1-yl]piperidine-2,6-dione]		1.5 nM			53%	
Cn1c(=O)n(C2CCC(=O)NC2=O)c2ccc(N3CCC(O[C@H]4CC[C@H](CN5CCN(c6cc(-c7n[nH]c8cnc(C9(C#N)CCC9)cc78)ncn6)CC5)CC4)CC3)cc21 (single isomer, unassigned) [Compound 22, rel-1-{3-[6-(4-{[(1r,4r)-4-({1-[1-(2,6-dioxopiperidin-3-yl)-3-methyl-2-oxo-2,3-dihydro-1H-1,3-benzodiazol-5-yl]piperidin-4-yl}oxy)cyclohexyl]methyl}piperazin-1-yl)pyrimidin-4-yl]-1H-pyrazolo[3,4-c]pyridin-5-yl}cyclobutane-1-carbonitrile]	46%	0.14 nM				
Cn1c(=O)n(C2CCC(=O)NC2=O)c2ccc(N3CCC(O[C@H]4C[C@H](COC5CCN(c6cc(-c7n[nH]c8cnc(OC9(C)CC9)cc78)ncn6)CC5)C4)CC3)cc21 (single isomer, unassigned) [Compound 34, rel-3-(3-methyl-2-oxo-5-{4-[(1r,3r)-3-{[(1-{6-[5-(1-methylcyclopropoxy)-1H-pyrazolo[3,4-c]pyridin-3-yl]pyrimidin-4-yl}piperidin-4-yl)oxy]methyl}cyclobutoxy]piperidin-1-yl}-2,3-dihydro-1H-1,3-benzodiazol-1-yl)piperidine-2,6-dione]	57%	0.42 nM				
CC1(Oc2ccc3[nH]nc(-c4cc(N5CCN(CC6CCC(OC7CCN(c8ccc9ncn(C%10CCC(=O)NC%10=O)c9c8)CC7)CC6)CC5)ncn4)c3c2)CC1 (stereo not shown) [Compound 4, 3-[6-(4-{[(1r,4r)-4-[(4-{6-[5-(1-methylcyclopropoxy)-1H-indazol-3-yl]pyrimidin-4-yl}piperazin-1-yl)methyl]cyclohexyl]oxy}piperidin-1-yl)-1H-1,3-benzodiazol-1-yl]piperidine-2,6-dione]		7.5 nM			62%	
CC(C)Oc1cc2c(-c3cc(N4CCC(OC5CCC(OC6CCN(c7ccc8c(c7)n(C)c(=O)n8C7CCC(=O)NC7=O)CC6)CC5)CC4)ncn3)n[nH]c2cn1 (stereo not shown) [Compound 28]		17 nM			60%	
CC(C)Oc1ccc2[nH]nc(-c3cc(N4CCC(O[C@H]5CC[C@H](OC6CCN(c7ccc8c(c7)n(C)c(=O)n8C7CCC(=O)NC7=O)CC6)CC5)CC4)ncn3)c2c1 (single isomer, unassigned) [Compound 27, rel-3-[3-methyl-2-oxo-5-(4-{[(1r,4r)-4-[(1-{6-[5-(propan-2-yloxy)-1H-indazol-3-yl]pyrimidin-4-yl}piperidin-4-yl)oxy]cyclohexyl]oxy}piperidin-1-yl)-2,3-dihydro-1H-1,3-benzodiazol-1-yl]piperidine-2,6-dione]	57%	0.25 nM				
CC(C)Oc1cc2c(-c3cc(N4CCC(O[C@H]5C[C@H](OC6CCN(c7ccc8c(c7)n(C)c(=O)n8C7CCC(=O)NC7=O)CC6)C5)CC4)ncn3)n[nH]c2cn1 (single isomer, unassigned) [Compound 31, rel-3-(3-methyl-2-oxo-5-{4-[(1r,3r)-3-[(1-{6-[5-(propan-2-yloxy)-1H-pyrazolo[3,4-c]pyridin-3-yl]pyrimidin-4-yl}piperidin-4-yl)oxy]cyclobutoxy]piperidin-1-yl}-2,3-dihydro-1H-1,3-benzodiazol-1-yl)piperidine-2,6-dione]		160 nM				61%
CC(C)Oc1ccc2[nH]nc(-c3cc(N4CCN(C[C@H]5CC[C@H](OC6CCN(c7ccc8c(c7)n(C(C)C)c(=O)n8C7CCC(=O)NC7=O)CC6)CC5)CC4)ncn3)c2c1 (single isomer, unassigned) [Compound 57, rel-3-[2-oxo-3-(propan-2-yl)-5-(4-{[(1r,4r)-4-[(4-{6-[5-(propan-2-yloxy)-1H-indazol-3-yl]pyrimidin-4-yl}piperazin-1-yl)methyl]cyclohexyl]oxy}piperidin-1-yl)-2,3-dihydro-1H-1,3-benzodiazol-1-yl]piperidine-2,6-dione]	51%	0.64 nM				
Cn1c(=O)n(C2CCC(=O)NC2=O)c2ccc(N3CCN(C[C@H]4C[C@H](OC5CCN(c6cc(-c7n[nH]c8cnc(OC9(C)CC9)cc78)ncn6)CC5)C4)CC3)cc21 (single isomer, unassigned) [Compound 36, rel-3-[3-methyl-2-oxo-5-(4-{[(1r,3r)-3-[(1-{6-[5-(1-methylcyclopropoxy)-1H-pyrazolo[3,4-c]pyridin-3-yl]pyrimidin-4-yl}piperidin-4-yl)oxy]cyclobutyl]methyl}piperazin-1-yl)-2,3-dihydro-1H-1,3-benzodiazol-1-yl]piperidine-2,6-dione]		0.079 nM				60%

Further lines, with some results ahead:

Dmax [1]	DC50 [2]	Dmax [3]	DC50 [4]	SMILES	WT LRRK2 **Dmax (%) [5]	Dmax [5]
56%	0.14 nM	56%	0.14 nM	Cn1c(=O)n(C2CCC(=O)NC2=O)c2ccc(N3CCC(CN4CCN(CC5CCN(c6cc(-c7n[nH]c8cnc(OC9(C)CC9)cc78)ncn6)CC5)C(C)(C)C4)CC3)cc21 (stereo not shown) [Compound 48, 3-{5-[4-({3,3-dimethyl-4-[(1-{6-[5-(1-methylcyclopropoxy)-1H-pyrazolo[3,4-c]pyridin-3-yl]pyrimidin-4-yl}piperidin-4-yl)methyl]piperazin-1-yl}methyl)piperidin-1-yl]-3-methyl-2-oxo-2,3-dihydro-1H-1,3-benzodiazol-1-yl}piperidine-2,6-dione]		
59%	4.2 nM	59%	4.2 nM	CC1(Oc2ccc3[nH]nc(-c4cc(N5CCC(CN6CCN(CC7CCN(c8cc9ncn(C%10CCC(=O)NC%10=O)c9cc8F)CC7)CC6(C)C)CC5)ncn4)c3c2)CC1 (stereo not shown) [Compound 40, 3-{5-[4-({3,3-dimethyl-4-[(1-{6-[5-(1-methylcyclopropoxy)-1H-indazol-3-yl]pyrimidin-4-yl}piperidin-4-yl)methyl]piperazin-1-yl}methyl)piperidin-1-yl]-6-fluoro-1H-1,3-benzodiazol-1-yl}piperidine-2,6-dione]		
49%	3.7 nM	49%	3.7 nM	CC1(Oc2ccc3[nH]nc(-c4cc(N5CCC(CN6CCN(CC7CCN(c8ccc9c(ncn9C9CCC(=O)NC9=O)c8F)CC7)CC6(C)C)CC5)ncn4)c3c2)CC1 (stereo not shown) [Compound 41, 3-{5-[4-({3,3-dimethyl-4-[(1-{6-[5-(1-methylcyclopropoxy)-1H-indazol-3-yl]pyrimidin-4-yl}piperidin-4-yl)methyl]piperazin-1-yl}methyl)piperidin-1-yl]-4-fluoro-1H-1,3-benzodiazol-1-yl}piperidine-2,6-dione]		
		65%	1.6 nM	COc1c(N2CCC(CN3CCN(CC4CCN(c5cc(-c6n[nH]c7ccc(OC8(C)CC8)cc67)ncn5)CC4)C(C)(C)C3)CC2)ccc2c1CN(C1CCC(=O)NC1=O)C2=O (stereo not shown) [Comparative Example 5, reference compound]		
50%	5 nM	50%	5 nM	CC1(Oc2ccc3[nH]nc(-c4cc(N5CCC(CN6CCN(CC7CCN(c8cccc9c8ncn9C8CCC(=O)NC8=O)CC7)CC6(C)C)CC5)ncn4)c3c2)CC1 (stereo not shown) [Compound 69, 3-{4-[4-({3,3-dimethyl-4-[(1-{6-[5-(1-methylcyclopropoxy)-1H-indazol-3-yl]pyrimidin-4-yl}piperidin-4-yl)methyl]piperazin-1-yl}methyl)piperidin-1-yl]-1H-1,3-benzodiazol-1-yl}piperidine-2,6-dione]		
50%	6.3 nM	50%	6.3 nM	CC1(Oc2ccc3[nH]nc(-c4cc(N5CCN(C[C@H]6CC[C@H](OC7CCN(c8cc9ncn(C%10CCC(=O)NC%10=O)c9cc8F)CC7)CC6)CC5)ncn4)c3c2)CC1 (stereo partly drawn) [Compound 44, rel-3-[6-fluoro-5-(4-{[(1r,4r)-4-[(4-{6-[5-(1-methylcyclopropoxy)-1H-indazol-3-yl]pyrimidin-4-yl}piperazin-1-yl)methyl]cyclohexyl]oxy}piperidin-1-yl)-1H-1,3-benzodiazol-1-yl]piperidine-2,6-dione]		
